According to US20230278981A1, “DICHLOROPHENOL HSD17B13 INHIBITORS AND USES THEREOF” (INIPHARM, INC., priority 2020, published 2023):

Molecular target: HSD17B13 (Homo sapiens (Human), UniProt Q7Z5P4)
Assay: LC/MS estrone detection assay: conversion of estradiol to estrone by HSD17B13
Format: biochemical
Conditions: 4 μM estradiol, 6 mM NAD+, 30 nM HSD17B13 enzyme (E. coli expressed His-tagged), 2 hours at 26.5° C.
Procedure, shortened: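 His-tagged E. coli-expressed HSD17B13 (30 nM) with 4 μM estradiol and 6 mM NAD+ in 1 M potassium phosphate pH 7.4, 0.5% DMSO, 2 h at 26.5° C. Estrone and estradiol quantified by LC-MS/MS after MeCN quench with D4-estrone internal standard; activity as % of uninhibited enzyme, IC50 by four-parameter fit, duplicates.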

HSD17B13, sequence (Q7Z5P4 20-300): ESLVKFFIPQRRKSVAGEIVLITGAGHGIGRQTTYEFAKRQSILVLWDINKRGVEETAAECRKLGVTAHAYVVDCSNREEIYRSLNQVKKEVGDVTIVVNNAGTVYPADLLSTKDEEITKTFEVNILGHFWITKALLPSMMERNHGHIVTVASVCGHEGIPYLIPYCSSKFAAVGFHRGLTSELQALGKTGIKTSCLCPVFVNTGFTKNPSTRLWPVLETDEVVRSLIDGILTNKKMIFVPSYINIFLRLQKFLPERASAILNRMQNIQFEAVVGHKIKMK

| SMILES | IC50 [µM] |
| --- | --- |
| Cc1ccc(NC(=O)c2cc(Cl)c(O)c(Cl)n2)c2c(=O)n(Cc3ccccc3OC(F)(F)F)c(C(F)F)nc12 [Example 160, 4,6-dichloro-N-(2-(difluoromethyl)-8-methyl-4-oxo-3-(2-(trifluoromethoxy)benzyl)-3,4-dihydroquinazolin-5-yl)-5-hydroxypicolinamide] | ≤ 0.1 |
| Cc1ccc(NC(=O)c2cc(Cl)c(O)c(Cl)n2)c2c(=O)n(Cc3nn(C)c4ccccc34)c(C)nc12 [Example 162, 4,6-dichloro-N-(2,8-dimethyl-3-((1-methyl-1H-indazol-3-yl)methyl)-4-oxo-3,4-dihydroquinazolin-5-yl)-5-hydroxypicolinamide] | 0.1 to 0.5 |
| Cc1ccc(NC(=O)c2cc(Cl)c(O)c(Cl)n2)c2c(=O)n(Cc3ccccc3C(F)(F)F)c(C)nc12 [Example 163, 4,6-dichloro-N-(2,8-dimethyl-4-oxo-3-(2-(trifluoromethyl)benzyl)-3,4-dihydroquinazolin-5-yl)-5-hydroxypicolinamide] | 0.1 to 0.5 |
| Cc1ccc(NC(=O)c2cc(Cl)c(O)c(Cl)c2)c2c(=O)n(Cc3ncccc3C(F)(F)F)c(C(F)F)nc12 [Example 164, 3,5-dichloro-N-(2-(difluoromethyl)-8-methyl-4-oxo-3-((3-(trifluoromethyl)pyridin-2-yl)methyl)-3,4-dihydroquinazolin-5-yl)-4-hydroxybenzamide] | 0.1 to 0.5 |
| Cc1nc2c(Cl)ccc(NC(=O)c3cc(Cl)c(O)c(Cl)n3)c2c(=O)n1Cc1ncccc1C(F)(F)F [Example 165, 4,6-dichloro-N-(8-chloro-2-methyl-4-oxo-3-((3-(trifluoromethyl)pyridin-2-yl)methyl)-3,4-dihydroquinazolin-5-yl)-5-hydroxypicolinamide] | 0.1 to 0.5 |
| Cc1nc2c(Cl)ccc(NC(=O)c3cc(Cl)c(O)c(Cl)c3)c2c(=O)n1Cc1ncccc1C(F)(F)F [Example 166, 3,5-dichloro-N-(8-chloro-2-methyl-4-oxo-3-((3-(trifluoromethyl)pyridin-2-yl)methyl)-3,4-dihydrjoquinazolin-5-yl)-4-hydroxybenzamide] | 0.1 to 0.5 |
| Cc1ccc(NC(=O)c2cc(Cl)c(O)c(Cl)c2)c2c(=O)n(Cc3ccccc3C(F)(F)F)c(C(F)F)nc12 [Example 167, 3,5-dichloro-N-(2-(difluoromethyl)-8-methyl-4-oxo-3-(2-(trifluoromethyl)benzyl)-3,4-dihydroquinazolin-5-yl)-4-hydroxybenzamide] | ≤ 0.1 |
| Cc1nc2c(F)ccc(NC(=O)c3cc(Cl)c(O)c(Cl)c3)c2c(=O)n1Cc1ccccc1OC(F)(F)F [Example 168, 3,5-dichloro-N-(8-fluoro-2-methyl-4-oxo-3-(2-(trifluoromethoxy)benzyl)-3,4-dihydroquinazolin-5-yl)-4-hydroxybenzamide] | ≤ 0.1 |

Results, then the molecule that gave them:

| IC50 [µM] | SMILES |
| --- | --- |
| ≤ 0.1 | [2H]C([2H])([2H])c1nc2c(C)ccc(NC(=O)c3cc(Cl)c(O)c(Cl)c3)c2c(=O)n1Cc1ccccc1OC(F)(F)F [Example 169, 3,5-dichloro-4-hydroxy-N-(8-methyl-2-(methyl-d3)-4-oxo-3-(2-(trifluoromethoxy)benzyl)-3,4-dihydroquinazolin-5-yl)benzamide] |
| 0.1 to 0.5 | Cc1nc2c(Cl)ccc(NC(=O)c3cc(Cl)c(O)c(Cl)n3)c2c(=O)n1Cc1ccccc1C(F)(F)F [Example 170, 4,6-dichloro-N-(8-chloro-2-methyl-4-oxo-3-(2-(trifluoromethyl)benzyl)-3,4-dihydroquinazolin-5-yl)-5-hydroxypicolinamide] |
| 0.1 to 0.5 | [2H]C([2H])([2H])c1nc2c(F)ccc(NC(=O)c3cc(Cl)c(O)c(Cl)c3)c2c(=O)n1Cc1ccccc1C(F)(F)F [Example 171, 3,5-dichloro-N-(8-fluoro-2-(methyl-d3)-4-oxo-3-(2-(trifluoromethyl)benzyl)-3,4-dihydroquinazolin-5-yl)-4-hydroxybenzamide] |
| 0.1 to 0.5 | Cc1ccc(NC(=O)c2cc(Cl)c(O)c(Cl)c2)c2c(=O)n(Cc3ncccc3Cl)c(C)nc12 [Example 172, 3,5-dichloro-N-(3-((3-chloropyridin-2-yl)methyl)-2,8-dimethyl-4-oxo-3,4-dihydroquinazolin-5-yl)-4-hydroxybenzamide] |
